# Data taken from patent US20170232083A1, “METHODS OF DIAGNOSIS AND TREATMENT OF CELIAC DISEASE IN CHILDREN” (priority 2014, published 2017).
# System: PBMC (polyclonal gluten-specific T cells) of paediatric and adult CD patients
# Test: IFN-γ ELISpot of PBMC after 3 day oral wheat challenge (SFU, % of maximal peptide response, dominance scores, EC50; Examples 5-6)
# Type: cell-based, human
# Settings: for IFN-γ ELISpot response: after oral wheat challenge
# [1] = patient A, 11-17 yrs, cut-off 10 SFU
# [2] = patient D, max peptide 30.5 SFU
# [3] = patient E, H, 11-17 yrs, cut-off 10 SFU
# [4] = patient F, 11-17 yrs, cut-off 10 SFU
# [5] = patient G, 11-17 yrs, cut-off 10 SFU
# [6] = patient H (HLA-DQ2.5 homozygote), 3-5yrs, cut-off 10 SFU
# [7] = patient H, 11-17 yrs, cut-off 10 SFU
# [8] = patient ID not given, 11-17 yrs, cut-off 10 SFU
# [9] = patient ID not given, max peptide 95 SFU
# [10] = patient N, 3-5yrs, cut-off 10 SFU
# [11] = patient P, 11-17 yrs, cut-off 21.6 SFU
# [12] = patient Q, 11-17 yrs, cut-off 10 SFU
# [13] = patient U, H, 11-17 yrs, cut-off 10 SFU
# [14] = patient V, 6-10 yrs, cut-off 10 SFU
# [15] = patient Y, 6-10 yrs, cut-off 10 SFU
# [16] = patient eleven, 6-10 yrs, cut-off 10 SFU
# [17] = patient five, max peptide 48 SFU
# [18] = patient four, 3-5yrs, cut-off 10 SFU
# [19] = patient seven, 6-10 yrs, cut-off 10.5 SFU
# [20] = patient ten, 3-5yrs, cut-off 10 SFU
# [21] = patient three, 6-10 yrs, cut-off 10.5 SFU
# [22] = patient twelve, 11-17 yrs, cut-off 10 SFU
# [23] = patient two, 3-5yrs, cut-off 10 SFU
# [24] = patient two, max peptide 60 SFU
Sequence,IFN-γ ELISpot response [1],IFN-γ ELISpot response [3],"Significant response as percentage of maximal peptide SFU (patient E, max peptide 224 SFU)",IFN-γ ELISpot response [4],IFN-γ ELISpot response [5],IFN-γ ELISpot response [6],IFN-γ ELISpot response [7],IFN-γ ELISpot response [8],Significant response as percentage of maximal peptide SFU [9],"Significant response as percentage of maximal peptide SFU (patient M, max peptide 48 SFU)",IFN-γ ELISpot response [10],IFN-γ ELISpot response [11],IFN-γ ELISpot response [12],"Significant response as percentage of maximal peptide SFU (patient Q, max peptide 97 SFU)",IFN-γ ELISpot response [13],IFN-γ ELISpot response [14],IFN-γ ELISpot response [15],IFN-γ ELISpot response [16],Significant response as percentage of maximal peptide SFU [17],IFN-γ ELISpot response [18],further results
PFPEQPEQPFPQP,4 SFU,30 SFU,′ (11-20% = ′),32 SFU,5 SFU,19 SFU,17 SFU,24 SFU,′′ (21-40% = ′′),′′ (21-40% = ′′),2 SFU,8 SFU,35 SFU,′′ (21-40% = ′′),13 SFU,16 SFU,4 SFU,4 SFU,′′ (21-40% = ′′),6 SFU,"Significant response as percentage of maximal peptide SFU [2]: ′′ (21-40% = ′′); Significant response as percentage of maximal peptide SFU (patient F, max peptide 178 SFU): ′ (11-20% = ′); Significant response as percentage of maximal peptide SFU (patient H, max peptide 17 SFU): + (>70% = +); Significant response as percentage of maximal peptide SFU (patient J, max peptide 196 SFU): ′′ (21-40% = ′′); Significant response as percentage of maximal peptide SFU (patient K, max peptide 53 SFU): ′′ (21-40% = ′′); Significant response as percentage of maximal peptide SFU (patient U, max peptide 81 SFU): ′ (11-20% = ′); Significant response as percentage of maximal peptide SFU (patient V, max peptide 35 SFU): ′′′ (41-70% = ′′′); IFN-γ ELISpot response [19]: 9 SFU; IFN-γ ELISpot response [20]: 5 SFU; IFN-γ ELISpot response [21]: 51 SFU; IFN-γ ELISpot response [22]: 11 SFU; IFN-γ ELISpot response [23]: 24 SFU; Significant response as percentage of maximal peptide SFU [24]: ′′ (21-40% = ′′)"
PFPEQPEQPYPQQ,0 SFU,14 SFU,(6-10% = ^),8 SFU,1 SFU,11 SFU,1 SFU,14 SFU,′ (11-20% = ′),′ (11-20% = ′),1 SFU,15 SFU,19 SFU,′ (11-20% = ′),2 SFU,7 SFU,5 SFU,3 SFU,′′ (21-40% = ′′),4 SFU,"Significant response as percentage of maximal peptide SFU (patient II, max peptide 15 SFU): + (>70% = +); IFN-γ ELISpot response [19]: 3 SFU; IFN-γ ELISpot response [20]: 5 SFU; IFN-γ ELISpot response [21]: 9 SFU; IFN-γ ELISpot response [22]: 2 SFU; IFN-γ ELISpot response [23]: 6 SFU"
PFPLQPEQPFPQP,6 SFU,30 SFU,′ (11-20% = ′),35 SFU,2 SFU,24 SFU,11 SFU,28 SFU,′′ (21-40% = ′′),′′′ (41-70% = ′′′),7 SFU,27 SFU,43 SFU,′′′ (41-70% = ′′′),23 SFU,21 SFU,9 SFU,8 SFU,+ (>70% = +),22 SFU,"Significant response as percentage of maximal peptide SFU [2]: ′′′ (41-70% = ′′′); Significant response as percentage of maximal peptide SFU (patient F, max peptide 178 SFU): ′ (11-20% = ′); Significant response as percentage of maximal peptide SFU (patient H, max peptide 17 SFU): ′′′ (41-70% = ′′′); Significant response as percentage of maximal peptide SFU (patient II, max peptide 15 SFU): + (>70% = +); Significant response as percentage of maximal peptide SFU (patient J, max peptide 196 SFU): ′′ (21-40% = ′′); Significant response as percentage of maximal peptide SFU (patient K, max peptide 53 SFU): ′′′ (41-70% = ′′′); Significant response as percentage of maximal peptide SFU (patient P, max peptide 64 SFU): ′′′ (41-70% = ′′′); Significant response as percentage of maximal peptide SFU (patient U, max peptide 81 SFU): ′′ (21-40% = ′′); Significant response as percentage of maximal peptide SFU (patient V, max peptide 35 SFU): ′′′ (41-70% = ′′′); Significant response as percentage of maximal peptide SFU (patient W, max peptide 30 SFU): + (>70% = +); Significant response as percentage of maximal peptide SFU (patient eight, max peptide 12 SFU): + (>70% = +); Significant response as percentage of maximal peptide SFU (patient four, max peptide 44 SFU): ′′′ (41-70% = ′′′); IFN-γ ELISpot response [19]: 27 SFU; Significant response as percentage of maximal peptide SFU (patient seven, max peptide 27 SFU): + (>70% = +); IFN-γ ELISpot response [20]: 8 SFU; IFN-γ ELISpot response [21]: 52 SFU; IFN-γ ELISpot response [22]: 15 SFU; IFN-γ ELISpot response [23]: 24 SFU; Significant response as percentage of maximal peptide SFU [24]: ′′ (21-40% = ′′)"
